# Laboratory results from the supplement of paper PMC11061612.
# What was measured:
# Assay in all cases: Bliss excess, mean over the matrix (fraction); higher = more synergy
# FU97 (Gastric Carcinoma) = system: FU97 (Gastric Carcinoma)
# Summary of the method: (§1)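 After 24 hours at 37°C and 5% CO2 in 1536-well plates, cells in DMEM/F12 or RPMI plus 10% FBS received two-drug dose matrices for 72 hours. Viability came from CellTiter-Glo 2.0 luminescence and was scaled as inhibition, anchored at 0 by vehicle wells and at 1 by blank wells. Combination Emax is taken as the second-highest inhibition in the matrix, and Bliss excess as the observed combination effect less EA + EB − EA·EB, with EA and EB the single-agent effects.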
# LN-405 (Glioblastoma) = system: LN-405 (Glioblastoma)
# Summary of the method: as §1
# [1] = system: BICR22 (Oral Cavity Carcinoma)
# Summary of the method: as §1
# IGR-37 (Melanoma) = system: IGR-37 (Melanoma)
# Summary of the method: as §1
# [2] = system: HCC1954 (Breast Carcinoma)
# Summary of the method: as §1
# [3] = system: NCI-H2141 (Small Cell Lung Carcinoma)
# Summary of the method: as §1
# [4] = system: SK-MG-1 (Low Grade Glioma)
# Summary of the method: as §1
# [5] = system: JSC-1 (B-Cell Non-Hodgkin's Lymphoma)
# Summary of the method: as §1
# [6] = system: SK-MES-1 (Squamous Cell Lung Carcinoma)
# Summary of the method: as §1
# [7] = system: KARPAS-422 (B-Cell Non-Hodgkin's Lymphoma)
# Summary of the method: as §1
# ARH-77 (Non-Cancerous) = system: ARH-77 (Non-Cancerous)
# Summary of the method: as §1
# [8] = system: ONS-76 (Other Solid Carcinomas)
# Summary of the method: as §1
# A498 (Kidney Carcinoma) = system: A498 (Kidney Carcinoma)
# Summary of the method: as §1
# 8-MG-BA (Glioblastoma) = system: 8-MG-BA (Glioblastoma)
# Summary of the method: as §1
# [9] = system: CAL-29 (Bladder Carcinoma)
# Summary of the method: as §1
# NCI-H2591 (Mesothelioma) = system: NCI-H2591 (Mesothelioma)
# Summary of the method: as §1
# [10] = system: SISO (Cervical Carcinoma)
# Summary of the method: as §1
# [11] = system: OS-RC-2 (Kidney Carcinoma)
# Summary of the method: as §1
# [12] = system: NCI-H1650 (Lung Adenocarcinoma)
# Summary of the method: as §1
# U-2-OS (Osteosarcoma) = system: U-2-OS (Osteosarcoma)
# Summary of the method: as §1
Compound,Bliss excess (FU97 (Gastric Carcinoma)),Bliss excess (LN-405 (Glioblastoma)),Bliss excess [1],Bliss excess (IGR-37 (Melanoma)),Bliss excess [2],Bliss excess [3],Bliss excess [4],Bliss excess [5],Bliss excess [6],Bliss excess [7],Bliss excess (ARH-77 (Non-Cancerous)),Bliss excess [8],Bliss excess (A498 (Kidney Carcinoma)),Bliss excess (8-MG-BA (Glioblastoma)),Bliss excess [9],Bliss excess (NCI-H2591 (Mesothelioma)),Bliss excess [10],Bliss excess [11],Bliss excess [12],Bliss excess (U-2-OS (Osteosarcoma))
"Cn1cnc2c(F)c(Nc3ccc(Br)cc3Cl)c(C(=O)NOCCO)cc21 [Selumetinib] + CC(C)n1c(=O)n(C)c2cnc3cc(F)c(-c4ccc(OCCCN5CCCCC5)nc4)cc3c21 [AZD1390] (first compound max 10 µM, 7x7, partner max 0.3 µM)",-0.0344,-0.0518,-0.027,-0.0398,-0.0277,-0.0386,-0.049,-0.0477,-0.0487,-0.032,-0.007,-0.0108,-0.0489,-0.018,-0.0073,-0.0585,-0.0395,-0.0371,-0.0572,-0.0464
"Cn1cnc2c(F)c(Nc3ccc(Br)cc3Cl)c(C(=O)NOCCO)cc21 [Selumetinib] + CCN(CCO)CCCOc1ccc2c(Nc3cc(CC(=O)Nc4cccc(F)c4)[nH]n3)ncnc2c1 [AZD2811] (first compound max 10 µM, 7x7, partner max 1 µM)",-0.0013,-0.0367,-0.0731,-0.0274,-0.0098,-0.0196,-0.0245,0.203,-0.048,0.0206,0.0498,-0.0464,0.002,-0.0181,0.0023,-0.0459,0.015,-0.0252,-0.0333,-0.0111
"Cn1cnc2c(F)c(Nc3ccc(Br)cc3Cl)c(C(=O)NOCCO)cc21 [Selumetinib] + C[C@@H]1COCCN1C2=NC(=NC(=C2)C3(CC3)[S@](=N)(=O)C)C4=C5C=CNC5=NC=C4 [AZD6738] (first compound max 10 µM, 7x7, partner max 10 µM)",0.0267,-0.0448,-0.0834,-0.0122,-0.0327,-0.0666,0.0158,0.0244,-0.025,-0.0396,0.029,-0.0914,-0.023,-0.0051,0.0155,0.0292,-0.0241,-0.0455,-0.0315,-0.0443
"CC1(C)CCC(CN2CCN(c3ccc(C(=O)NS(=O)(=O)c4ccc(NCC5CCOCC5)c([N+](=O)[O-])c4)c(Oc4cnc5[nH]ccc5c4)c3)CC2)=C(c2ccc(Cl)cc2)C1 [Venetoclax] + C1CN(CCC1(C(=O)N[C@@H](CCO)C2=CC=C(C=C2)Cl)N)C3=NC=NC4=C3C=CN4 [Capivasertib] (first compound max 1 µM, 7x7, partner max 3 µM)",-0.0295,-0.0712,-0.0249,-0.0448,0.0021,-0.0534,-0.0649,-0.0613,-0.044,0.0459,0.054,-0.114,-0.121,0.0442,-0.0319,-0.0453,-0.0557,-0.0442,-0.0329,-0.0414
"CC1(C)CCC(CN2CCN(c3ccc(C(=O)NS(=O)(=O)c4ccc(NCC5CCOCC5)c([N+](=O)[O-])c4)c(Oc4cnc5[nH]ccc5c4)c3)CC2)=C(c2ccc(Cl)cc2)C1 [Venetoclax] + C=CCn1c(=O)c2cnc(Nc3ccc(N4CCN(C)CC4)cc3)nc2n1-c1cccc(C(C)(C)O)n1 [AZD1775] (first compound max 1 µM, partner max 1 µM)",0.0519,0.0151,0.0453,0.0267,-0.0366,0.0167,-0.0369,-0.0281,-0.0237,0.0389,0.025,0.0043,-0.0031,-0.0307,-0.0167,-0.0497,-0.0765,-0.078,-0.0298,-0.018
"CC1(C)CCC(CN2CCN(c3ccc(C(=O)NS(=O)(=O)c4ccc(NCC5CCOCC5)c([N+](=O)[O-])c4)c(Oc4cnc5[nH]ccc5c4)c3)CC2)=C(c2ccc(Cl)cc2)C1 [Venetoclax] + CCN(CCO)CCCOc1ccc2c(Nc3cc(CC(=O)Nc4cccc(F)c4)[nH]n3)ncnc2c1 [AZD2811] (first compound max 1 µM, 7x7, partner max 1 µM)",0.024,0.0185,-0.0138,-0.011,0.0579,0.0609,-0.0199,0.0485,-0.0139,0.242,0.198,-0.0244,-0.0503,0.0065,0.0361,-0.009,-0.0091,-0.0484,0.0046,-0.0188
"CC1(C)CCC(CN2CCN(c3ccc(C(=O)NS(=O)(=O)c4ccc(NCC5CCOCC5)c([N+](=O)[O-])c4)c(Oc4cnc5[nH]ccc5c4)c3)CC2)=C(c2ccc(Cl)cc2)C1 [Venetoclax] + CN(C)CCCOc1ccc(-c2ccc3ncc4c(c3c2)n(C2CCOCC2)c(=O)n4C)cn1 [AZD0156] (first compound max 1 µM, 7x7, partner max 1 µM)",-0.0293,-0.0256,-0.0381,-0.0039,0.0044,-0.0183,-0.0527,0.0102,-0.0106,0.0398,0.0357,-0.054,-0.029,-0.0171,-0.0219,-0.0202,0.0004,-0.0456,-0.0361,-0.0107
"CC1(C)CCC(CN2CCN(c3ccc(C(=O)NS(=O)(=O)c4ccc(NCC5CCOCC5)c([N+](=O)[O-])c4)c(Oc4cnc5[nH]ccc5c4)c3)CC2)=C(c2ccc(Cl)cc2)C1 [Venetoclax] + COc1cc(Nc2ncc3c(n2)-c2ccc(Cl)cc2C(c2c(F)cccc2OC)=NC3)ccc1C(=O)O [Alisertib] (first compound max 1 µM, 7x7, partner max 10 µM)",-0.0524,-0.0196,0.0052,-0.0148,0.0356,0.171,-0.0126,0.0504,-0.0201,0.137,0.278,-0.0478,-0.0352,0.0038,-0.0554,-0.066,0.0121,-0.0547,-0.0515,0.0055
"CC1(C)CCC(CN2CCN(c3ccc(C(=O)NS(=O)(=O)c4ccc(NCC5CCOCC5)c([N+](=O)[O-])c4)c(Oc4cnc5[nH]ccc5c4)c3)CC2)=C(c2ccc(Cl)cc2)C1 [Venetoclax] + C[C@@H]1COCCN1C2=NC(=NC(=C2)C3(CC3)[S@](=N)(=O)C)C4=C5C=CNC5=NC=C4 [AZD6738] (first compound max 1 µM, 7x7, partner max 10 µM)",-0.0455,-0.016,-0.0511,0.0453,0.0328,0.0202,-0.0553,-0.0148,-0.0215,-0.0055,0.0642,-0.0531,-0.0459,-0.0603,-0.018,-0.0595,-0.0309,-0.0804,-0.0605,-0.0469
"CC1(C)CCC(CN2CCN(c3ccc(C(=O)NS(=O)(=O)c4ccc(NCC5CCOCC5)c([N+](=O)[O-])c4)c(Oc4cnc5[nH]ccc5c4)c3)CC2)=C(c2ccc(Cl)cc2)C1 [Venetoclax] + C[C@@H](Nc1cc(F)cc(F)c1)c1cc(C(=O)N(C)C)cc2c(=O)cc(N3CCOCC3)oc12 [AZD8186] (first compound max 1 µM, 7x7, partner max 3 µM)",-0.0019,-0.0013,-0.0378,-0.0335,-0.0245,0.0074,-0.0149,-0.0218,0.0051,0.0808,0.0649,-0.025,-0.043,0.0025,-0.0341,-0.0378,-0.0268,-0.0629,-0.019,-0.0269
"CC1(C)CCC(CN2CCN(c3ccc(C(=O)NS(=O)(=O)c4ccc(NCC5CCOCC5)c([N+](=O)[O-])c4)c(Oc4cnc5[nH]ccc5c4)c3)CC2)=C(c2ccc(Cl)cc2)C1 [Venetoclax] + Cc1cc2ncnn2cc1Nc1ncc2c(n1)n(C1CCOCC1)c(=O)n2C [AZD7648] (first compound max 1 µM, 7x7, partner max 10 µM)",-0.0387,0.015,-0.0376,0.0149,-0.0034,-0.0491,-0.0351,-0.0103,-0.0002,0.0157,0.0245,-0.0499,-0.0755,-0.0139,-0.0222,-0.0384,-0.01,-0.0584,-0.0446,-0.0178
"CC1(C)CCC(CN2CCN(c3ccc(C(=O)NS(=O)(=O)c4ccc(NCC5CCOCC5)c([N+](=O)[O-])c4)c(Oc4cnc5[nH]ccc5c4)c3)CC2)=C(c2ccc(Cl)cc2)C1 [Venetoclax] + Cn1cnc2c(F)c(Nc3ccc(Br)cc3Cl)c(C(=O)NOCCO)cc21 [Selumetinib] (first compound max 1 µM, 7x7, partner max 3 µM)",-0.0378,-0.0598,-0.0691,-0.0499,0.0025,-0.0303,-0.0062,-0.0184,-0.0572,-0.0238,0.0304,-0.141,0.024,-0.0216,-0.0137,-0.0169,-0.0162,-0.101,-0.0457,-0.0309
